In patent publication US6632822B1, “Compounds and therapeutic methods” (The Australian National University, priority 1999, dated 2003):
Read-outs that look alike come from different tables or passages of the source.

Assays:
[1] = tested on: Plasmodium falciparum chloroquine-resistant strain (FAF6, derived from ITG2 strain); assay: Growth inhibition of chloroquine-resistant malaria parasite (parasite lactate dehydrogenase viability); type: cell-based
Text: Compounds IA and IB (also referred to herein as calothrixins A and B respectively) were isolated from Calothrix strains (Schlegel et al, J. Appl, Phycol. 10, 471-479 (1998)), extracts of which were screened for activity against HeLa cells and Plasmodium as described in the Examples.
A chloroquine-resistant strain (FAF6, derived from ITG2 strain (Biggs, B. A., Gooze, L., Wycherley, K., Wollish, W., Southwell, B., Leech, J. H., and Brown, G. V (1991). Proc. Natl. Acad. Sci. USA 88, 9171-9174, 1991) of the malaria parasite. Plasmodium falciparum was used. Parasites were cultured in standard media (Trager, W. and Jensen, J. B. (1976). Science 193 673-675) with modifications (Cranmer, S. L., Magowan, C., Lian, J., Coppel, R. L., and Cooke, B. M. (1997). Trans. Roy. Soc. Trop. Med. Hyg. 91, 363-365). At the start of the assay the parasitaemia was 2% and haematocrit was 2%. Parasites were incubated in the presence of inhibitors in 96-well plates for 48 h.
Parasite-derived lactate dehydrogenase activity at the end of the 48 h period was used as a measure of parasite viability in vitro (Makler, M. T., Ries, J. M., Williams, J. A., Bancroft, J. E., Piper, R. C., Gibbins, B. L., and Hinrichs, D. J. (1993). Am. J. Trop. Med. Hyg. 48, 739-741).
The results are illustrated in FIG. 1.

HeLa cells = assay: HeLa cell cytotoxicity, MTT assay; type: cell-based; settings: cultured HeLa cells, 4 days continuous incubation, ± s.d., listed as IB (Calothrixin B)
Method: The compounds of Formula IA and IB were also examined for their efficacy in inhibiting the growth of cultured HeLa cells (FIG. 2). The IC50 values are depicted in Table 2.
Exponentially growing HeLa cells were trysinized, centrifuged and resuspended in fresh medium. (RPMI 1640, 20% FCS, 2 mM glutamine). […] Calothrix cell extracts or the purified active compound were prepared in dimethyl sulphoxide, serially diluted in complete medium, then added (100 μL) in quadruplicate to cell suspensions. Cells were incubated continuously with extracts at 37° C. for 4 days. Cytotoxicity was determined using the MTT [3-(4,5dimethylthiazol-2-yl)-2,5-diphenyl-tetrazolium bromide] assay. MTT (50 μL, 2 mg ML^−1) was aliquotted into all wells of the microtitre plate and incubated at 37° C. for 4 h. Plates were inverted to discard medium and formazan crystals were solubilized in 100 μL DMSO with 25 μL glycine buffer (0.1 M glycine in 0.1 M NaCl, pH 10.5). Plates were agitated for 30 s and absorbances determined immediately at […] using a Titertek Multiskan Plus MKII ELISA plate reader.
The results are illustrated in FIG. 2.

Structure (SMILES)	IC50 ([1]; Plasmodium falciparum, 48 h) [nM]	IC50 ([1]; chloroquine-resistant P. falciparum strain FAF6, 48 h incubation, parasite lactate dehydrogenase activity, ± s.d., listed as IB (Calothrixin B), read-out: IC50) [nM]	IC50 (HeLa cells) [nM]
CCN(CC)CCCC(C)Nc1ccnc2cc(Cl)ccc12 (stereo not drawn) [Chloroquine, reference compound]	180 ± 44	–	–
O=C1c2[nH]c3ccccc3c2C(=O)c2cnc3ccccc3c21 [IB, Calothrixin B]	–	83 ± 17	350 ± 82
